# Test results: patent publication US20110269826A1, “Method” (priority 2008, published 2011)
# Tested on: MPTP primates
# Experiment: Dyskinesia and locomotor studies in drug-naive MPTP primates incl. L-Dopa and apomorphine challenge
# Experimental: Evaluation of dyskinesias was performed in the efficacy studies describe above using a novel method for dyskinesia quantification based on video dyskinesia analysis (VDA) that assesses the whole range of dyskinetic movement continuously during the observed video sequence, using a standardized protocol.
# To mimic clinical conditions, these drug-naive animals were further challenged with acute systemic administration of L-Dopa then with a pro-dyskinetic short-acting D1/D2 dopaminergic agonist (apomorphine).
# Experimental Design. Neurotoxin MPTP was first administrated to 23 macaques until they developed severe Parkinsonism, these were then divided into experimental groups according to the following experiments: • 1. […] Animals were then challenged with L-Dopa and the number of dyskinesias was assessed with a specific software (The Observer®, Noldus)
# Behaviour. All animals were assessed daily for their general clinical condition with special attention paid to the nutritional status. At the same time, the general neurological state of each macaque was assessed both pre- and post-lentiviral injections. To objectively quantify our neurological observations, animals were video-taped for 30 minutes before MPTP lesioning and at regular intervals following viral injections. The videos were then analyzed off-line by an examiner blinded to the experimental conditions. […]
smiles,measurement,setting,value
CN1CCc2cccc3c2[C@H]1Cc1ccc(O)c(O)c1-3 [apomorphine],dyskinesia induced by the drug in drug naive MPTP animals,"acute systemic administration, no therapeutic vector",induced hyperkinetic behaviour with numerous dyskinetic movements
same,locomotor activity of MPTP-long term and MPTP-LacZ primates after the drug,"oral L-Dopa / apomorphine injection, to levels similar to normal primates, p<0.05",improved the locomotor activity
